Assay results taken from US10800786B2, “Bicyclic compounds as ATX inhibitors” (Hoffmann-La Roche Inc., priority 2015, dated 2020).
Where two headings read alike, the source gives them in different places.

Target: ATX (human His-tagged) (Homo sapiens (Human), UniProt Q13822)
Test: Human ATX enzyme inhibition assay (fluorescence quenching, MR121 substrate)
Format: biochemical
Experimental: Human Atx Enzyme Inhibition Assay
Assay working solutions were made as follows:
Assay buffer (50 mM Tris-HCl, 140 mM NaCl, 5 mM KCl, 1 mM CaCl2, 1 mM MgCl2, 0.01% Triton-X-100, pH 8.0;
MR121 substrate solution: MR121 substrate stock solution (800 μM MR121 substrate in DMSO), diluted to 2-5× final concentration in assay buffer.
10 μL of MR121 substrate solution was added ([…] final concentration), mixed 30 times and then incubated for 15 minutes at 30° C.

[1] = 30 nM ATX, MR121 substrate, 30° C., pH 8.0, read-out: ATX IC50

CC(C)(C)C(=O)Nc1cc(C(F)(F)F)cnc1COC(=O)N1CC2=C(C1)CN(C(=O)[C@@H]1CCc3[nH]nnc3C1)C2 [Example 1.00, [3-(2,2-Dimethylpropanoylamino)-5-(trifluoromethyl)pyridin-2-yl]methyl 2-[(5R)-4,5,6,7-tetrahydro-1H-benzotriazole-5-carbonyl]-1,3,4,6-tetrahydropyrrolo[3,4-c]pyrrole-5-carboxylate] gave an IC50 [1] of 7 nM.

Cn1c(=O)[nH]c2ccc(C(=O)N3CC4=C(CN(C(=O)c5cc(OCC6CCOCC6)nc(C6CC6)c5)C4)C3)cc21 [Example 1.01, 6-(5-(2-cyclopropyl-6-((tetrahydro-2H-pyran-4-yl)methoxy)isonicotinoyl)-1,2,3,4,5,6-hexahydropyrrolo[3,4-c]pyrrole-2-carbonyl)-1-methyl-1H-benzo[d]imidazol-2(3H)-one] was tested, and the IC50 [1] was 8 nM.

Work on O=C(c1cc(OCC2CCOCC2)nc(C2CC2)c1)N1CC2=C(C1)CN(C(=O)[C@@H]1CCc3[nH]nnc3C1)C2 [Example 1.02, [2-cyclopropyl-6-(oxan-4-ylmethoxy)pyridin-4-yl]-[5-[(5R)-4,5,6,7-tetrahydro-1H-benzotriazole-5-carbonyl]-1,3,4,6-tetrahydropyrrolo[3,4-c]pyrrol-2-yl]methanone] yielded an IC50 [1] of 5 nM.

Work on O=C(c1cc(OCC2CCOCC2)nc(C2CC2)c1)N1CC2=C(C1)CN(C(=O)c1ccc3[nH]nnc3c1)C2 [Example 1.03] yielded an IC50 [1] of 5 nM.

CC(C)(C)C(=O)Nc1cc(C(F)(F)F)cnc1COC(=O)N1CC2=C(C1)CN(C(=O)c1ccc3[nH]nnc3c1)C2 [Example 1.04, [3-(2,2-dimethylpropanoylamino)-5-(trifluoromethyl)pyridin-2-yl]methyl 2-(1H-benzotriazole-5-carbonyl)-1,3,4,6-tetrahydropyrrolo[3,4-c]pyrrole-5-carboxylate] was tested, and the IC50 [1] was 8 nM.

With O=C(OCc1ccc(OC(F)(F)F)cc1)N1CC2=C(C1)CN(C(=O)c1ccc3[nH]nnc3c1)C2 [Example 1.05, 4-(trifluoromethoxy)benzyl 5-(1H-benzo[d][1,2,3]triazole-5-carbonyl)-3,4,5,6-tetrahydropyrrolo[3,4-c]pyrrole-2(1H)-carboxylate] the IC50 [1] was 3 nM.

With Cc1nnn(Cc2cc(C(F)(F)F)ccc2CCC(=O)N2CC3=C(C2)CN(C(=O)c2ccc4[nH]nnc4c2)C3)n1 [Example 1.06, 1-[5-(1H-benzotriazole-5-carbonyl)-1,3,4,6-tetrahydropyrrolo[3,4-c]pyrrol-2-yl]-3-[2-[(5-methyltetrazol-2-yl)methyl]-4-(trifluoromethyl)phenyl]propan-1-one] the IC50 [1] was 11 nM.

In the case of CC(C)(C)C(=O)Nc1cc(C(F)(F)F)cnc1COC(=O)N1CCC2=C(CCN(C(=O)c3ccc4[nH]nnc4c3)C2)C1 [Example 1.07, [3-(2,2-dimethylpropanoylamino)-5-(trifluoromethyl)pyridin-2-yl]methyl 6-(1H-benzotriazole-5-carbonyl)-1,3,4,5,7,8-hexahydro-2,6-naphthyridine-2-carboxylate], the IC50 [1] is reported as 17 nM.

In the case of CC(C)(C)C(=O)Nc1cc(Cl)c(Cl)nc1COC(=O)N1CC2=C(C1)CN(C(=O)c1ccc3[nH]nnc3c1)C2 [Example 1.08, [5,6-dichloro-3-(2,2-dimethylpropanoylamino)pyridin-2-yl]methyl 2-(1H-benzotriazole-5-carbonyl)-1,3,4,6-tetrahydropyrrolo[3,4-c]pyrrole-5-carboxylate], the IC50 [1] is reported as 7 nM.

For O=C(c1cc(OCC2CCOCC2)nc(C2CC2)c1)N1CC2=C(C1)CN(C(=O)c1ccc3c(O)noc3c1)C2 [Example 1.09, [5-[2-cyclopropyl-6-(oxan-4-ylmethoxy)pyridine-4-carbonyl]-1,3,4,6-tetrahydropyrrolo[3,4-c]pyrrol-2-yl]-(3-hydroxy-1,2-benzoxazol-6-yl)methanone], the IC50 [1] was 4 nM.

Compound O=C1NS(=O)(=O)c2cc(C(=O)N3CC4=C(CN(C(=O)c5cc(OCC6CCOCC6)nc(C6CC6)c5)C4)C3)ccc21 [Example 1.10, 6-[5-[2-cyclopropyl-6-(oxan-4-ylmethoxy)pyridine-4-carbonyl]-1,3,4,6-tetrahydropyrrolo[3,4-c]pyrrole-2-carbonyl]-1,1-dioxo-1,2-benzothiazol-3-one] has an IC50 [1] of 13 nM.

CC(C)(C)C(=O)Nc1cc(C(F)(F)F)cnc1COC(=O)N1CC2=C(C1)CN(C(=O)N1CCc3[nH]nnc3C1)C2 [Example 2.00, [3-(2,2-Dimethylpropanoylamino)-5-(trifluoromethyl)pyridin-2-yl]methyl 2-(1,4,6,7-tetrahydrotriazolo[4,5-c]pyridine-5-carbonyl)-1,3,4,6-tetrahydropyrrolo[3,4-c]pyrrole-5-carboxylate] gave an IC50 [1] of 5 nM.

For O=C(c1cc(OCC2CCOCC2)nc(C2CC2)c1)N1CC2=C(C1)CN(C(=O)N1CCc3[nH]nnc3C1)C2 [Example 2.02, [2-cyclopropyl-6-(oxan-4-ylmethoxy)pyridin-4-yl]-[5-(1,4,6,7-tetrahydrotriazolo[4,5-c]pyridine-5-carbonyl)-1,3,4,6-tetrahydropyrrolo[3,4-c]pyrrol-2-yl]methanone], the IC50 [1] was 6 nM.

Compound NS(=O)(=O)C1CCN(C(=O)N2CC3=C(CN(C(=O)c4cc(OCC5CCOCC5)nc(C5CC5)c4)C3)C2)CC1 [Example 2.04, 1-[2-[2-cyclopropyl-6-(oxan-4-ylmethoxy)pyridine-4-carbonyl]-1,3,4,6-tetrahydropyrrolo[3,4-c]pyrrole-5-carbonyl]piperidine-4-sulfonamide] has an IC50 [1] of 5.5 nM.

For O=C(c1cc(OCC2CCOCC2)nc(C2CC2)c1)N1CC2=C(C1)CN(C(=O)N1CCc3c(cn[nH]c3=O)C1)C2 [Example 2.08, 6-[2-[2-cyclopropyl-6-(oxan-4-ylmethoxy)pyridine-4-carbonyl]-1,3,4,6-tetrahydropyrrolo[3,4-c]pyrrole-5-carbonyl]-2,5,7,8-tetrahydropyrido[3,4-d]pyridazin-1-one], the IC50 [1] was 10 nM.

Work on O=C(c1cc(OCC2CCOCC2)nc(C2CC2)c1)N1CC2=C(C1)CN(C(=O)N1CCc3c(n[nH]c3O)C1)C2 [Example 2.12, [2-cyclopropyl-6-(oxan-4-ylmethoxy)pyridin-4-yl]-[5-(3-hydroxy-2,4,5,7-tetrahydropyrazolo[3,4-c]pyridine-6-carbonyl)-1,3,4,6-tetrahydropyrrolo[3,4-c]pyrrol-2-yl]methanone] yielded an IC50 [1] of 441 nM.

Compound O=C(c1cc(OCC2CCOCC2)nc(C2CC2)c1)N1CC2=C(C1)CN(C(=O)N1CCc3onc(O)c3C1)C2 [Example 2.13, [2-cyclopropyl-6-(oxan-4-ylmethoxy)pyridin-4-yl]-[5-(3-hydroxy-6,7-dihydro-4H-[1,2]oxazolo[4,5-c]pyridine-5-carbonyl)-1,3,4,6-tetrahydropyrrolo[3,4-c]pyrrol-2-yl]methanone] has an IC50 [1] of 97 nM.

O=C1NC(=O)N2CCN(C(=O)N3CC4=C(CN(C(=O)c5cc(OCC6CCOCC6)nc(C6CC6)c5)C4)C3)CC12 (centres unmarked) [Example 2.14, 7-[2-[2-cyclopropyl-6-(oxan-4-ylmethoxy)pyridine-4-carbonyl]-1,3,4,6-tetrahydropyrrolo[3,4-c]pyrrole-5-carbonyl]-5,6,8,8a-tetrahydroimidazo[1,5-a]pyrazine-1,3-dione] gave an IC50 [1] of 122 nM.

O=C(OCc1c[nH]nn1)N1CC2=C(C1)CN(C(=O)c1cc(OCC3CCOCC3)nc(C3CC3)c1)C2 [Example 3.00, (1H-1,2,3-Triazol-4-yl)methyl 5-(2-cyclopropyl-6-((tetrahydro-2H-pyran-4-yl)methoxy)isonicotinoyl)-3,4,5,6-tetrahydropyrrolo[3,4-c]pyrrole-2(1H)-carboxylate] showed an IC50 [1] of 36 nM.

In the case of NS(=O)(=O)C1CCN(C(=O)C2CC3=C(C2)CN(C(=O)c2cc(OCC4CCOCC4)nc(C4CC4)c2)C3)CC1 [Example 4.00, 1-[2-[2-Cyclopropyl-6-(oxan-4-ylmethoxy)pyridine-4-carbonyl]-3,4,5,6-tetrahydro-1H-cyclopenta[c]pyrrole-5-carbonyl]piperidine-4-sulfonamide], the IC50 [1] is reported as 11 nM.

Compound O=C(c1cc(OCC2CCOCC2)nc(C2CC2)c1)N1CC2=C(CC(C(=O)N3CCc4[nH]nnc4C3)C2)C1 [Example 4.01, [2-cyclopropyl-6-(oxan-4-ylmethoxy)pyridin-4-yl]-[5-(1,4,6,7-tetrahydrotriazolo[4,5-c]pyridine-5-carbonyl)-3,4,5,6-tetrahydro-1H-cyclopenta[c]pyrrol-2-yl]methanone] has an IC50 of 10 nM.

With O=C(c1cc(OCC2CCOCC2)nc(C2CC2)c1)N1CC2=C(CN(Cc3ccc4[nH]c(=O)oc4c3)C2)C1 [Example 5.00, 6-[[5-[2-Cyclopropyl-6-(oxan-4-ylmethoxy)pyridine-4-carbonyl]-1,3,4,6-tetrahydropyrrolo[3,4-c]pyrrol-2-yl]methyl]-3H-1,3-benzoxazol-2-one] the IC50 [1] was 1 nM.

NS(=O)(=O)C1(F)CCN(C(=O)N2CC3=C(CN(C(=O)c4cc(OCC5CCOCC5)nc(C5CC5)c4)C3)C2)CC1 [Example 6.00, 1-[2-[2-Cyclopropyl-6-(oxan-4-ylmethoxy)pyridine-4-carbonyl]-1,3,4,6-tetrahydropyrrolo[3,4-c]pyrrole-5-carbonyl]-4-fluoropiperidine-4-sulfonamide] gave an IC50 [1] of 3 nM.
